# From patent publication US9302991B2, “Arylamide derivatives as TTX-S blockers” (RaQualia Pharma Inc., priority 2010, dated 2016)
# Biological target: T1, human Nav1.7 channels (Homo sapiens, UniProt Q15858)
# T1 construct: expressed in transfected cells; host or cells: CHO
# Test: FRET assay, human Nav1.7 (EFS on FDSS)
# Format: cell-based
# Conditions: CHO cells expressing human Nav1.7, read-out: IC50 against Nav1.7
# How it was run: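 CHO cells stably expressing the channel, loaded with CC2-DMPE (10 µM) then DiSBAC2(3) (15 µM) plus VABSC-1, in HEPES-buffered saline pH 7.4 at room temperature. Electrical field stimulation on FDSS; FRET ratio at 440 nm fitted for IC50.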
# T1 sequence (Q15858 whole entry): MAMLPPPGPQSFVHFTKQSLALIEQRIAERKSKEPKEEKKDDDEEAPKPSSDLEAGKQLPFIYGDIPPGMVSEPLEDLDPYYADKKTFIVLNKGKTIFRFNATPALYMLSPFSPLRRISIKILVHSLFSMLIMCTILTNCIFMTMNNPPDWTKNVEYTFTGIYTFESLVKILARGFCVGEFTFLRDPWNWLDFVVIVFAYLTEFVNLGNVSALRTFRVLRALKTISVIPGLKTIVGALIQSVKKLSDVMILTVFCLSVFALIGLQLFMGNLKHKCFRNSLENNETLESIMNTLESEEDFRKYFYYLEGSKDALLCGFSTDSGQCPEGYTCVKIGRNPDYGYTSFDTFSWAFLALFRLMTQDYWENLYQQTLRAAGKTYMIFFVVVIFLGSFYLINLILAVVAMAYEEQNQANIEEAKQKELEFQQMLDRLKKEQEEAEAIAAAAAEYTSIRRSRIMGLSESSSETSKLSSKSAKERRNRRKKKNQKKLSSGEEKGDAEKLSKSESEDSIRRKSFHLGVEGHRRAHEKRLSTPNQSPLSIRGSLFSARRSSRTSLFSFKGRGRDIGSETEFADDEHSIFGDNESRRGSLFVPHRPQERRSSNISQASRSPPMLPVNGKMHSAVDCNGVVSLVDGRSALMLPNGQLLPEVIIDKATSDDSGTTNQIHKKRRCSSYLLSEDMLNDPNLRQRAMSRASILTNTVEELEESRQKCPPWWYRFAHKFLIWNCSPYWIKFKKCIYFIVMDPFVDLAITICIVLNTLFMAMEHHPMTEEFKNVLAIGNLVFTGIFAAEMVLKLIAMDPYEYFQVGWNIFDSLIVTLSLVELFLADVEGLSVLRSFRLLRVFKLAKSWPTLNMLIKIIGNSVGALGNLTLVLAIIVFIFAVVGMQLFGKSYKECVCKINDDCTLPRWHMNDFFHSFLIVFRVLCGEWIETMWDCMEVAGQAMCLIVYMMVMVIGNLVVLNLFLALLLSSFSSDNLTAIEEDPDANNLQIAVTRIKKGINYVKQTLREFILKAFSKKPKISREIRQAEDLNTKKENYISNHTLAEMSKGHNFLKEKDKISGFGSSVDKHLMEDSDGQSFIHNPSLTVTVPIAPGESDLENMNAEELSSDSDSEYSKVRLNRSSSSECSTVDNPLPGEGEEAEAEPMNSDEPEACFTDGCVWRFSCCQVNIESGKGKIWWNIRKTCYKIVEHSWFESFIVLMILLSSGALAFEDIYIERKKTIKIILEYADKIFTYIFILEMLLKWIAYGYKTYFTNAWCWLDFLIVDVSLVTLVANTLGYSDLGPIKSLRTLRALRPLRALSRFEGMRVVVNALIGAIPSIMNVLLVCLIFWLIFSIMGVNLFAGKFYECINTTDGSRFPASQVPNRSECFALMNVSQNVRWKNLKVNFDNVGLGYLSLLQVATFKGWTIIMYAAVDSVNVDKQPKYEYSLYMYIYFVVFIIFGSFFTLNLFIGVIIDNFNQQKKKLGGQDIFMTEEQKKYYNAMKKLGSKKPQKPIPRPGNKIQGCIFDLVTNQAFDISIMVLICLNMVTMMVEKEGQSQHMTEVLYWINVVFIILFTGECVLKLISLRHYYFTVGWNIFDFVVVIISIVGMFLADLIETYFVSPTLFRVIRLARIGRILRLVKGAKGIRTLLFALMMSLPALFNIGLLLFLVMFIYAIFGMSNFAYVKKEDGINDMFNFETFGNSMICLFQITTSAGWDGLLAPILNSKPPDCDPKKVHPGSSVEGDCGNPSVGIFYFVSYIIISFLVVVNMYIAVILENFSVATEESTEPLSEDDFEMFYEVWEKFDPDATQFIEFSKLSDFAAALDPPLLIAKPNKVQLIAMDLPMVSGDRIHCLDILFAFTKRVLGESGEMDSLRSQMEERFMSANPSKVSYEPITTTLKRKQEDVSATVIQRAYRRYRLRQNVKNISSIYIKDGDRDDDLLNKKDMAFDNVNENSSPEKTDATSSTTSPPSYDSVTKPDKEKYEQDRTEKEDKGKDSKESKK
row,SMILES,IC50
1,"CCC(=O)Nc1cc(C(=O)NC(CC)c2ccc(OCC(F)(F)F)nc2)cc(C)n1 (single isomer, unassigned) [Example 133, 2-methyl-6-propionamido-N-(1-(6-(2,2,2-trifluoroethoxy)pyridin-3-yl)propyl)isonicotinamide]",< 1 µM
2,"Cc1cc(C(=O)NCc2ccc(OCC(F)F)c(Cl)c2)cc(NC(=O)C(C)C)n1 [Example 1003, N-(3-chloro-4-(2,2-difluoroethoxy)benzyl)-2-isobutyramido-6-methylisonicotinamide]",< 1 µM
3,"Cc1cc(C(=O)NC(C)c2cc(C)c(OCC(F)F)c(Cl)c2)cc(NC(=O)C(C)C)n1 (single isomer, unassigned) [Example 1212, N-(1-(3-chloro-4-(2,2-difluoroethoxy)-5-methylphenyl)ethyl)-2-isobutyramido-6-methylisonicotinamide]",< 1 µM
4,"CCc1cc(CNC(=O)c2ccnc(NC(=O)C3CC3)c2)cnc1OCC(F)F [Example 931, 2-(cyclopropanecarboxamido)-N-((6-(2,2-difluoroethoxy)-5-ethylpyridin-3-yl)methyl)isonicotinamide]",< 1 µM
5,"Cc1cc(C(=O)NC(C)c2ccc(OCC(F)F)c(C)c2)cc(NC(=O)C(C)C)n1 (single isomer, unassigned) [Example 865, N-(1-(4-(2,2-difluoroethoxy)-3-methyphenyl)ethyl)-2-isobutyramido-6-methylisonicotinamide]",< 1 µM
6,"Cc1cc(C(=O)NC(C)c2cnc(OCC(F)(F)F)c(F)c2)cc(NC(=O)C(C)C)n1 (single isomer, unassigned) [Example 486, N-(1-(5-fluoro-6-(2,2,2-trifluoroethoxy)pyridin-3-yl)ethyl)-2-isobutyramido-6-methylisonicotinamide]",< 1 µM
7,"CC(=O)Nc1nccc(C(=O)NC(C)c2cnc(OCC(F)(F)F)c(C)c2)n1 (single isomer, unassigned) [Example 234, 2-acetamido-N-(1-(5-methyl-6-(2,2,2-trifluoroethoxy)pyridin-3-yl)ethyl)pyrimidine-4-carboxamide]",< 1 µM
8,"COc1c(CNC(=O)c2cc(C)nc(NC(C)=O)c2)cccc1C(F)(F)F [Example 819, 2-acetamido-N-(2-methoxy-3-(trifluoromethyl)benzyl)-6-methylisonicotinamide]",< 1 µM
9,"COc1cc(CNC(=O)c2cc(C)nc(NC(C)=O)c2)cnc1OCC(F)(F)F [Example 272, 2-acetamido-N-((5-methoxy-6-(2,2,2-trifluoroethoxy)pyridin-3-yl)methyl)-6-methylisonicotinamide]",< 1 µM
10,"Cc1cc(C(=O)NCc2cnc(OCC(F)(F)F)c(C)c2)nc(NC(=O)C2CC2)n1 [Example 365, 2-(cyclopropanecarboxamido)-6-methyl-N-((5-methyl-6-(2,2,2-trifluoroethoxy)pyridin-3-yl)methyl)pyrimidine-4-carboxamide]",< 1 µM
11,"Cc1cc(C(=O)NC(C)c2cccc(OC(F)(F)F)c2)cc(NC(=O)C(C)(C)O)n1 (single isomer, unassigned) [Example 421, 2-(2-hydroxy-2-methylpropanamido)-6-methyl-N-(1-(3-(trifluoromethoxy)phenyl)ethyl)isonicotinamide]",< 1 µM
12,"CC(=O)Nc1cc(C(=O)NC(C)c2ccc(OCC(F)(F)C(F)(F)F)nc2)ccn1 (single isomer, unassigned) [Example 924, 2-acetamido-N-(1-(6-(2,2,3,3,3-pentafluoropropoxy)pyridin-3-yl)ethyl)isonicotinamide]",< 1 µM
13,"Cc1nc(OCC(F)(F)F)c(F)cc1CNC(=O)c1ccnc(NC(=O)C(C)C)c1 [Example 314, N-((5-fluoro-2-methyl-6-(2,2,2-trifluoroethoxy)pyridin-3-yl)methyl)-2-isobutyramidoisonicotinamide]",< 1 µM
14,"COc1nc(OCC(F)F)ccc1CNC(=O)c1cc(C)nc(NC(C)=O)c1 [Example 1156, 2-acetamido-N-((6-(2,2-difluoroethoxy)-2-methoxypyridin-3-yl)methyl)-6-methylisonicotinamide]",< 1 µM
15,"CCCC(=O)Nc1cc(C(=O)NC(C)c2cnc(OCC(F)F)c(C)c2)ccn1 (single isomer, unassigned) [Example 633, 2-butyramido-N-(1-(6-(2,2-difluoroethoxy)-5-methylpyridin-3-yl)ethyl)isonicotinamide]",< 1 µM
16,"COc1nc(OCC(F)F)ccc1CNC(=O)c1ccnc(NC(=O)C(C)C)c1 [Example 1154, N-((6-(2,2-difluoroethoxy)-2-methoxypyridin-3-yl)methyl)-2-isobutyramidoisonicotinamide]",< 1 µM
17,"Cc1cc(C(=O)NC(C)c2ccc(OCC(F)(F)C(F)F)nc2)cc(NC(=O)C(C)C)n1 (single isomer, unassigned) [Example 657, 2-isobutyramido-6-methyl-N-(1-(6-(2,2,3,3-tetrafluoropropoxy)pyridin-3-yl)ethyl)isonicotinamide]",< 1 µM
18,"Cc1cc(C(=O)NCc2ccc(OCC(F)F)cc2C)cc(NC(=O)C(C)C)n1 [Example 1008, N-(4-(2,2-difluoroethoxy)-2-methylbenzyl)-2-isobutyramido-6-methylisonicotinamide]",< 1 µM
19,"Cc1cc(C(=O)NC(C)c2cc(C(F)(F)F)ccc2F)cc(NC(=O)C(C)C)n1 (single isomer, unassigned) [Example 980, N-(1-(2-fluoro-5-(trifluoromethyl)phenyl)ethyl)-2-isobutyramido-6-methylisonicotinamide]",< 1 µM
20,"COc1cc(C(C)NC(=O)c2ccnc(NC(=O)C3CC3)c2)cnc1OCC(F)(F)F (single isomer, unassigned) [Example 143, 2-(cyclopropanecarboxamido)-N-(1-(5-methoxy-6-(2,2,2-trifluoroethoxy)pyridin-3-yl)ethyl)isonicotinamide]",< 1 µM
21,"Cc1cc(C(=O)NC(C)c2ccc(OCC(F)(F)F)cc2Cl)nc(NC(=O)C2CC2)n1 (single isomer, unassigned) [Example 803, N-(1-(2-chloro-4-(2,2,2-trifluoroethoxy)phenyl)ethyl)-2-(cyclopropanecarboxamido)-6-methylpyrimidine-4-carboxamide]",< 1 µM
22,"CC(C)C(=O)Nc1cc(C(=O)NC(C)c2cnc(OCC(F)(F)F)c(F)c2)ccn1 (single isomer, unassigned) [Example 220, N-(1-(5-fluoro-6-(2,2,2-trifluoroethoxy)pyridin-3-yl)ethyl)-2-isobutyramidoisonicotinamide]",< 1 µM

# Further lines, results first:
row,IC50,SMILES
1,< 1 µM,"CC(=O)Nc1cc(C(=O)NCc2cnc(OCC(F)(F)F)c(-c3ccco3)c2)ccn1 [Example 770, 2-acetamido-N-((5-(furan-2-yl)-6-(2,2,2-trifluoroethoxy)pyridin-3-yl)methyl)isonicotinamide]"
2,< 1 µM,"CCC(=O)Nc1cc(C(=O)N(C)Cc2ccc(OCC(F)(F)F)nc2OC)cc(C)n1 [Example 291, N-((2-methoxy-6-(2,2,2-trifluoroethoxy)pyridin-3-yl)methyl)-N,2-dimethyl-6-propionamidoisonicotinamide]"
3,< 1 µM,"CC(C)C(=O)Nc1cc(C(=O)NC(C)c2ccc(OCC(C)(F)F)nc2)ccn1 (single isomer, unassigned) [Example 785, N-(1-(6-(2,2-difluoropropoxy)pyridin-3-yl)ethyl)-2-isobutyramidoisonicotinamide]"
4,< 1 µM,"Cc1cc(C(=O)NCc2ccc(OCCC(F)(F)F)nc2)cc(NC(=O)C(C)C)n1 [Example 490, 2-isobutyramido-6-methyl-N-((6-(3,3,3-trifluoropropoxy)pyridin-3-yl)methyl)isonicotinamide]"
5,< 1 µM,"CC(=O)Nc1cc(C(=O)NC(C)c2cccc(OCC(F)(F)F)c2)ccn1 (single isomer, unassigned) [Example 84, 2-acetamido-N-(1-(3-(2,2,2-trifluoroethoxy)phenyl)ethyl)isonicotinamide]"
6,< 1 µM,"CC(C)C(=O)Nc1cc(C(=O)NC(C)c2cccc(SC(F)(F)F)c2)ccn1 (single isomer, unassigned) [Example 1030, 2-isobutyramido-N-(1-(3-((trifluoromethyl)thio)phenyl)ethyl)isonicotinamide]"
7,< 1 µM,"Cc1cc(C(=O)NC(C)c2ccc(OCC(F)(F)C(F)(F)F)nc2)cc(NC(=O)C(C)C)n1 (single isomer, unassigned) [Example 693, 2-isobutyramido-6-methyl-N-(1-(6-(2,2,3,3,3-pentafluoropropoxy)pyridin-3-yl)ethyl)isonicotinamide]"
8,< 1 µM,"CC(=O)Nc1cc(C(=O)NCc2ccc(OCC(F)(F)F)nc2)cc(C)n1 [Example 237, 2-acetamido-6-methyl-N-((6-(2,2,2-trifluoroethoxy)pyridin-3-yl)methyl)isonicotinamide]"
9,< 1 µM,"CC(=O)Nc1cc(C(=O)NC(C)c2cnc(OCC(F)(F)C(F)F)c(C)c2)ccn1 (single isomer, unassigned) [Example 903, 2-acetamido-N-(1-(5-methyl-6-(2,2,3,3-tetrafluoropropoxy)pyridin-3-yl)ethyl)isonicotinamide]"
10,< 1 µM,"CCC(=O)Nc1cc(C(=O)NCc2ccnc(OCC(F)(F)F)c2)cc(C)n1 [Example 137, 2-methyl-6-propionamido-N-((2-(2,2,2-trifluoroethoxy)pyridin-4-yl)methyl)isonicotinamide]"
11,< 1 µM,"CCC(=O)Nc1cc(C(=O)NCc2cnc(OCC(F)(F)F)cc2C)cc(C)n1 [Example 179, 2-methyl-N-((4-methyl-6-(2,2,2-trifluoroethoxy)pyridin-3-yl)methyl)-6-propionamidoisonicotinamide]"
12,< 1 µM,"CC(C)C(=O)Nc1cc(C(=O)NC(C)c2ccc(OCC(F)(F)F)cc2)ccn1 (single isomer, unassigned) [Example 562, 2-isobutyramido-N-(1-(4-(2,2,2-trifluoroethoxy)phenyl)ethyl)isonicotinamide]"
